{"source": "ChEMBL document CHEMBL1667732", "about": "“The diarylheptanoid (+)-aR,11S-myricanol and two flavones from bayberry (Myrica cerifera) destabilize the microtubule-associated protein tau” (J Nat Prod, 2011)", "key": {"IMR-32": {"test_system": "IMR-32", "assay": "Destabilization of microtubule-associated protein tau protein in human IMR32 cells assessed as reduction in tau protein level at 50 to 250 uM", "type": "cell-based"}, "Mus musculus": {"organism": "Mus musculus", "assay": "Destabilization of microtubule-associated protein tau protein in mouse brain slice assessed as reduction in tau protein level at 50 to 250 uM", "type": "tissue-based"}, "[1]": {"assay": "Cytotoxicity against human HeLaC3 cells by LDH release assay", "type": "cell-based", "conditions": "hela c3"}, "HeLa-C3": {"test_system": "HeLa-C3", "assay": "Destabilization of microtubule-associated protein tau protein in human HeLa-C3 cells assessed as reduction in tau protein level at 50 to 250 uM", "type": "cell-based"}, "[2]": {"assay": "Cytotoxicity against human IMR32 cells by LDH release assay", "type": "cell-based", "conditions": "imr-32"}}, "note": "The source made the active and inactive calls. The calls are words filed in the database; no cut-off is given here."}
{"smiles": "COc1c2cc(c(O)c1OC)CCCC[C@H](O)CCc1ccc(O)c-2c1", "values": [{"measurement": "Activity", "setting": "IMR-32", "value": "Active"}, {"measurement": "Activity", "setting": "Mus musculus", "value": "Active"}, {"measurement": "Activity", "setting": "[1]", "value": "Non-toxic"}, {"measurement": "Activity", "setting": "HeLa-C3", "value": "Active"}, {"measurement": "Activity", "setting": "[2]", "value": "Non-toxic"}]}
